Measurements reported in patent publication US20200239530A1, “COMPOUNDS AND METHODS OF MODULATING PROTEIN DEGRADATION” (Vividion Therapeutics, Inc., priority 2017, published 2020).

Experiments:
Assay in all cases: Cysteine liganding, probe competition
Type in all cases: binding
HMOX2 Heme oxygenase 2 = molecular target: T1, HMOX2 Heme oxygenase 2 (Homo sapiens, UniProt P30519); settings: for Liganded: HMOX2 Res# 265, uniprot P30519
T1 construct: Cells were resuspended in cold PBS on ice and sonicated with a probe sonicator to achieve lysis; endogenous in cells
T1 sequence (P30519 1-316): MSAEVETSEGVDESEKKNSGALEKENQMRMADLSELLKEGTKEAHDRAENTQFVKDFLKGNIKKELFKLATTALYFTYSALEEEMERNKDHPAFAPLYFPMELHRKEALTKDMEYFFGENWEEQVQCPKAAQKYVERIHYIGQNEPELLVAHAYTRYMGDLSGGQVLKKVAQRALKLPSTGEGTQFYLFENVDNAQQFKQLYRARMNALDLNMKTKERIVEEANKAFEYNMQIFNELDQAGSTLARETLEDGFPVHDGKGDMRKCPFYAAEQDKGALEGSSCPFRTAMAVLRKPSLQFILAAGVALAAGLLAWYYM
Procedure, shortened: (§1)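 Steps: sonicate cells in cold PBS; treat 5 mg/ml lysate with compound (25° C, 1 hr); add desthiobiotin iodoacetamide probe from a 10 mM stock (25° C, 1 hr); precipitate, reduce, alkylate, digest with trypsin; capture labelled peptides on streptavidin for analysis.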

HIST1H3J Histone H3.1 = molecular target: T2, HIST1H3J Histone H3.1 (Homo sapiens, UniProt P68431); settings: for Liganded: HIST1H3J Res# 111, uniprot P68431
T2 construct: Cells were resuspended in cold PBS on ice and sonicated with a probe sonicator to achieve lysis; endogenous in cells
Procedure, shortened: as §1

[1] = molecular target: T3, PRMT5 Protein arginine N-methyltransferase 5 (Homo sapiens, UniProt O14744)
T3 construct: Cells were resuspended in cold PBS on ice and sonicated with a probe sonicator to achieve lysis; endogenous in cells
Procedure, shortened: as §1

[2] = molecular target: T4, PPCDC Phosphopantothenoylcysteine decarboxylase (Homo sapiens, UniProt Q96CD2)
T4 construct: Cells were resuspended in cold PBS on ice and sonicated with a probe sonicator to achieve lysis; endogenous in cells
T4 sequence (Q96CD2 1-204): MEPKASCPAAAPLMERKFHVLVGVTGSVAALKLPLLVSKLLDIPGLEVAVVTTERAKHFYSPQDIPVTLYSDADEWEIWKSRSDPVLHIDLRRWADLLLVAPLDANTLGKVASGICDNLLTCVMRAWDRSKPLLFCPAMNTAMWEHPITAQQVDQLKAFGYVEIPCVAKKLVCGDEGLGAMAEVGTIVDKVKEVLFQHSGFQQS
Procedure, shortened: as §1

T3 sequence (O14744 whole entry): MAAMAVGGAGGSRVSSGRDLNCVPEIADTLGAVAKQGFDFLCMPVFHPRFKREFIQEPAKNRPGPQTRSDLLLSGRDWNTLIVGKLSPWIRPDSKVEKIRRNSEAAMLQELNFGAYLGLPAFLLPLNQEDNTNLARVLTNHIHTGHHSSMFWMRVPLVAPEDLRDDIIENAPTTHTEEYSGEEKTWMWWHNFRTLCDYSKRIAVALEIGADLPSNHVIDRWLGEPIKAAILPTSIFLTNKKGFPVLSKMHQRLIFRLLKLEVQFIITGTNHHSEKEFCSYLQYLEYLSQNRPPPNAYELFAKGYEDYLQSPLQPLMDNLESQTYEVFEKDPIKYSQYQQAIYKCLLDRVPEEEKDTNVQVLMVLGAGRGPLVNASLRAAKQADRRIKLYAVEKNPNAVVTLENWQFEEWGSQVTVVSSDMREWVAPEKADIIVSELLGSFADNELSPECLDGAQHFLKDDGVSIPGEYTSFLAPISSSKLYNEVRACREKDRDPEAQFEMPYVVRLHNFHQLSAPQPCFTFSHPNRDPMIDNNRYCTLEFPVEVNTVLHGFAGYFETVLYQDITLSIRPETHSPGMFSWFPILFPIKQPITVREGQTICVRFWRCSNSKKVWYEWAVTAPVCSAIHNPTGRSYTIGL
T3 sequence (Q9BQA1 whole entry partner): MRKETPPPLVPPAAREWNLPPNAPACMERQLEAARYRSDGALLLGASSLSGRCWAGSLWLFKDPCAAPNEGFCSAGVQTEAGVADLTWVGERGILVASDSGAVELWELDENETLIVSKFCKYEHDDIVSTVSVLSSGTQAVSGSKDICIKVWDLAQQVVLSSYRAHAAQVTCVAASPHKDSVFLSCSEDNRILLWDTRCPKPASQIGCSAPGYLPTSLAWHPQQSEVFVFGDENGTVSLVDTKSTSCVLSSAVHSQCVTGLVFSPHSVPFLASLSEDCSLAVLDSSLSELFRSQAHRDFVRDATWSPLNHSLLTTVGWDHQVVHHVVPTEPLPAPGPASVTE

| SMILES | Liganded (HMOX2 Heme oxygenase 2) | Liganded (HIST1H3J Histone H3.1) | Liganded ([1]; PRMT5 Res# 278, uniprot O14744) | Liganded ([2]; PPCDC Res# 173, uniprot Q96CD2) | 100 Max (HMOX2 Heme oxygenase 2; uniprot P30519) | 100 ave (HMOX2 Heme oxygenase 2; uniprot P30519) | 500 ave (HMOX2 Heme oxygenase 2; uniprot P30519) | 500 Max (HMOX2 Heme oxygenase 2; uniprot P30519, in % (unit assumed)) | 100 ave (HIST1H3J Histone H3.1; uniprot P68431) | 500 Max (HIST1H3J Histone H3.1; uniprot P68431) | 500 ave (HIST1H3J Histone H3.1; uniprot P68431) | 100 Max (HIST1H3J Histone H3.1; uniprot P68431, in % (unit assumed)) | 100 ave ([1]; uniprot O14744) | 500 Max ([1]; uniprot O14744) | 500 ave ([1]; uniprot O14744) | 100 Max ([1]; uniprot O14744, in % (unit assumed)) | 100 Max ([2]; uniprot Q96CD2) | 100 ave ([2]; uniprot Q96CD2) | 500 Max ([2]; uniprot Q96CD2) | 500 ave ([2]; uniprot Q96CD2) |
| --- | --- | --- | --- | --- | --- | --- | --- | --- | --- | --- | --- | --- | --- | --- | --- | --- | --- | --- | --- | --- |
| COc1ccc2c(c1)CCCN2C(=O)CCl [KB02] | YES | YES | YES | YES |  |  |  |  |  |  |  |  |  |  |  |  |  |  |  |  |
| O=C(CCl)Nc1cc(C(F)(F)F)cc(C(F)(F)F)c1 [KBO3] | YES | YES |  |  | 93.81 | 81.435 | 88.6 | 98.54 | 22.28 | 79.39 | 79.39 | 50.87 | 16.62 | 45.47 | 45.47 | 16.62 | 23.85 | 13.215 | 71.73 | 71.73 |
